Experimental data reported in EP1235797B1, “ARALKYL-1,2-DIAMINES HAVING CALCIMIMETIC ACTIVITY AND PREPARATION MODE” (CENTRE NATIONAL DE LA RECHERCHE SCIENTIFIQUE (CNRS), priority 1999, dated 2001).

Legend:
[1] = target: T1, récepteurs de la parathyroïde (Rattus norvegicus, UniProt P48442); conditions: experimental trials in the rat; cited from earlier work
T1 construct: from tissue; host or cells: rat parathyroid gland (in vivo)
T1 sequence (P48442 20-1079): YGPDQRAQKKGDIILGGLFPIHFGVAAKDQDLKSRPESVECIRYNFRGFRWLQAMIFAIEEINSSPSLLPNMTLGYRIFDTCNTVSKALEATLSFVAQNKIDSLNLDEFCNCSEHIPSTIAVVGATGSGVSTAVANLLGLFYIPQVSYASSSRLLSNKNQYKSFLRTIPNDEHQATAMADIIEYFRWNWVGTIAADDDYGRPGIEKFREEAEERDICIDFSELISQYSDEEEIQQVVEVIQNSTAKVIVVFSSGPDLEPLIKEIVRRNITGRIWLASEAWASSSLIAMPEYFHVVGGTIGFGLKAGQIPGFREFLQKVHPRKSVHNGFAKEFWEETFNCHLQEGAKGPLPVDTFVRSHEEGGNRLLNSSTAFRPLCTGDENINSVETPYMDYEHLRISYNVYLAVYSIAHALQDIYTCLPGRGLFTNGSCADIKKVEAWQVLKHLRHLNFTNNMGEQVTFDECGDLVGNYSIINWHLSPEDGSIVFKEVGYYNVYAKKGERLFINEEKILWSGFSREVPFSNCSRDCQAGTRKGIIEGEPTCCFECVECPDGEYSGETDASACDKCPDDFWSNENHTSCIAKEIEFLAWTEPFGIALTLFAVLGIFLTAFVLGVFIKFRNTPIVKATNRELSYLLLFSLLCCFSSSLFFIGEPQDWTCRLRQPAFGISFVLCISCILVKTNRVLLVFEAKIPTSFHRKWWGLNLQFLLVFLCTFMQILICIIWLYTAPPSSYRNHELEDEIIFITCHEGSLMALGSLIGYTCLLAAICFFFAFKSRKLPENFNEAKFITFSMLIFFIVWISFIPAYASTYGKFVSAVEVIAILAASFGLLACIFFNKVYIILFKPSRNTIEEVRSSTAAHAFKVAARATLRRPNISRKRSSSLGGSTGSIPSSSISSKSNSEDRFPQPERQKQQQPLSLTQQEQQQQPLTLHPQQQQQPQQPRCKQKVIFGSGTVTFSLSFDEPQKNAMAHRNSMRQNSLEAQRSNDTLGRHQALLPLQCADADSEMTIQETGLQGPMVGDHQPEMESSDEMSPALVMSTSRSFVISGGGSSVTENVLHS

CaSR de rat = target: T2, CaSR de rat (Rattus norvegicus, UniProt P48442); assay: Accumulation of tritiated inositol phosphates ([3H]IP) in transfected CHO(CaSR) cells; format: cell-based; conditions: compound 10 µM
T2 construct: expressed in transfected cells; host or cells: CHO (Chinese hamster ovary) cells, line CHO(CaSR)
T2 sequence (P48442 20-1079): T1 sequence (P48442 20-1079)
Description: L'ADN complémentaire codant pour le CaSR de rat a été isolé à partir d'une banque ADNc de striatum de rat (Ruat et al, Proc. Natl. Acad. Sci., 1995). Ce récepteur est identique au niveau de sa séquence en acides aminés à celui exprimé dans les autres tissus. Des cellules ovariennes de hamster chinois (CHO) transfectées exprimant le CaSR de rat (CHO(CaSR)) ont été caractérisées et les signaux chimiques (seconds messagers) induits par l'activation de ce récepteur ont été analysés. Ainsi, un test biochimique permettant de mesurer l'accumulation d'inositols phosphates tritiés [^3H]IP en réponse à l'activation du récepteur a été mis au point (Ruat et al, J. Biol. Chem., 1996; Ferry et al, Biochem. Biophys. Res. Commun., 1997).
L'activité calcimimétique des composés a été estimée en mesurant l'accumulation d'inositols phosphates tritiés induite par 10 µM de chacun des composés en présence de 2 mM de Ca^2+ dans les cellules CHO(CaSR) (Ferry et al, Biochem Biophys Res Commun, 1997).
Cette activation a été comparée à celle induite par le composé NPS-R- 568, un calcimimétique de référence et utilisé à une concentration de 10 µM (Tableau 1) (Ferry et al, Biochem Biophys Res Commun, 1997; Nemeth et al, Proc Natl Acad Sci USA, 1997).
Dans le tableau 1, l'activité calcimimétique des composés PHD est comparée à celle d'un composé de référence, le NPS-R-568 utilisé à la même concentration et dans les mêmes conditions expérimentales. Cette activité est exprimée en pourcentage de l'activité de 10 mM de Ca^2+. Les moyennes ± erreurs standards de 2 à 5 manipulations indépendantes sont indiquées. Les expériences ont été réalisées en présence de 2 mM de Ca^2+.
(§1) L'accumulation d'inositols phosphates tritiés est exprimée en pourcentage du taux de base observé en présence de 2 mM Ca^2+ (100 %) dans les cellules CHO(WT*) ou CHO(CaSR).

cellules CHO(WT*) = assay: Specificity control: [3H]IP accumulation in CHO(WT*) control cells transfected with the plasmid alone, not expressing CaSR; format: cell-based, hamster chinois; conditions: compound 10 µM, basal level in presence of 2 mM Ca^2+ = 100 %
Method: Les molécules PHD, utilisées à une concentration de 10 µM ne conduisent pas ou peu à l'accumulation d'[^3H]IP dans des cellules CHO(WT*) témoins ce qui suggère leur spécificité d'action vis-à-vis du CaSR (Tableau 2). Les cellules CHO(WT*) ont été tranfectées avec le plasmide seul et n'expriment pas le CaSR.
as §1

PTH [2] = conditions: male patients with chronic renal failure (Antansen et al, Kidney International, 1998); cited from earlier work
glande parathyroïdienne = conditions: rat model of chronic renal failure (Wada et al, J. Clin. Invest., 1997); cited from earlier work
PTH [3] = conditions: oral route, postmenopausal women with primary hyperparathyroidism (Silverberg et al, 1997); cited from earlier work
ostéitis fibrosa = conditions: rat (Wada et al, Kidney International, 1998); cited from earlier work
[4] = clinical trials Phase I - II, NPS Pharmaceutical (Nemeth et al, 1999); cited from earlier work

| Accumulation d'(^3H)-IP % du taux basal. CHO (CaSR) (CaSR de rat; basal level in presence of 2 mM Ca^2+ = 100 %) | activity at 10 µM (CaSR de rat; basal level in presence of 2 mM Ca^2+ = 100 %, read-out: Accumulation d'(^3H)-IP % du taux basal. CHO (CaSR)) | Accumulation d'(^3H)-IP % de la réponse 10mM Ca^2+ ± E.S. (CaSR de rat; in presence of 2 mM Ca^2+, mean ± standard error of 2 to 5 independent experiments) | activation at 10 µM (CaSR de rat; in presence of 2 mM Ca^2+, mean ± standard error of 2 to 5 independent experiments, read-out: Accumulation d'(^3H)-IP % de la réponse 10mM Ca^2+ ± E.S.) | Structure (SMILES) | sélectivité vis à vis des récepteurs de la parathyroïde comparativement à ceux de la glande thyroïde [1] | Accumulation d'(^3H)-IP % du taux basal. CHO (WT*) (cellules CHO(WT*)) | activity at 10 µM (cellules CHO(WT*); read-out: Accumulation d'(^3H)-IP % du taux basal. CHO (WT*)) | concentrations de PTH (PTH [2]) | réduire la prolifération cellulaire observée dans la glande parathyroïdienne (glande parathyroïdienne) | concentrations de PTH et des ions Ca^2+ libres sériques (PTH [3]) | ostéitis fibrosa (ostéitis fibrosa) | bio-disponibilité [4] |
| --- | --- | --- | --- | --- | --- | --- | --- | --- | --- | --- | --- | --- |
|  |  |  |  | COc1cccc([C@@H](C)NCCCc2ccccc2)c1 [NPS R-467] | plus sélectif |  |  |  |  |  |  |  |
| une forte accumulation | 454 ± 33% | 106 ± 15% | 100% | COc1cccc([C@@H](C)NCCCc2ccccc2Cl)c1 [NPS R-568, reference compound] |  | peu ou pas d'accumulation | 119 ± 9% | réduit | 20-50% | abaisser | réduit ou élimine | faible |
